Non-standard residues stand in square brackets, D forms with d. Residues, ends and D or L forms follow the SMILES beside them. *: point of attachment. Leu(ol) = CC(C)C[C@H](N)CO; Octanoyl = CCCCCCCC(=O)*; Aib = CC(C)(N)C(=O)O
Legend:
[1] = test system: Pyricularia oryzae IT10 strain on barley leaves (cv. Alora); conditions: in vivo
[2] = test system: P. oryzae (IT10 strain) conidia; assay type: cell-based, Pyricularia oryzae
[3] = test system: Pyricularia oryzae (strains AP, Guy11, I203 and IT10); conditions: for inhibition of fungal growth compared to the untreated control: 96 h, 50 μM, pH 6.85
[4] = test system: Pyricularia oryzae IT10 strain on rice (cv. Vialone Nano); conditions: in vivo
[5] = test system: P. oryzae conidia; assay type: cell-based, Pyricularia oryzae; conditions: pH 7
[6] = test system: P. oryzae AP strain; assay type: cell-based, Pyricularia oryzae
[7] = test system: P. oryzae Guy11 strain; assay type: cell-based, Pyricularia oryzae
[8] = test system: P. oryzae I203 strain; assay type: cell-based, Pyricularia oryzae
[9] = test system: P. oryzae IT10 strain; assay type: cell-based, Pyricularia oryzae

| Compound | reduction of blast lesion area in comparison with untreated barley leaves [1] | morphology and germination of treated conidia [2] | inhibition of fungal growth compared to the untreated control [3] | significance of lesion inhibition compared to the Control [1] | reduction in Disease Severity Index (DSI) [4] | inhibition of fungal growth (in words) [3] | further results |
| --- | --- | --- | --- | --- | --- | --- | --- |
| CCCCCCCC(=O)NC(C)(C)C(=O)N[C@@H](CCCCN)C(=O)N[C@@H](CC(C)C)C(=O)NC(C)(C)C(=O)NCC(=O)NCC(=O)N[C@@H](CC(C)C)C(=O)NC(C)(C)C(=O)NCC(=O)N[C@H](C(=O)N[C@H](CO)CC(C)C)[C@@H](C)CC [Pep 2] (Octanoyl-[Aib]KL[Aib]GGL[Aib]GI[Leu(ol)]) | ineffective | important morphological changes | more than 90% |  |  |  |  |
| CCCCCCCC(=O)NC(C)(C)C(=O)N[C@@H](CCCCN)C(=O)N[C@@H](CC(C)C)C(=O)NC(C)(C)C(=O)NCC(=O)NCC(=O)N[C@@H](CC(C)C)C(=O)NC(C)(C)C(=O)NCC(=O)N[C@H](C(=O)N[C@@H](CC(C)C)C(N)=O)[C@@H](C)CC [Pep 2Rink] (Octanoyl-[Aib]KL[Aib]GGL[Aib]GIL-NH2) | about 92% |  | more than 90% | Significant inhibition | 65-70% |  | representative lesions on barley leaves (in words) [1]: Almost no lesions; representative lesions on rice leaves (in words) [4]: reduced lesions |
| CCCCCCCC(=O)NC(C)(C)C(=O)NCC(=O)N[C@@H](CC(C)C)C(=O)NC(C)(C)C(=O)N[C@@H](CCCCN)C(=O)N[C@@H](CCCCN)C(=O)N[C@@H](CC(C)C)C(=O)NC(C)(C)C(=O)NCC(=O)N[C@H](C(=O)N[C@H](CO)CC(C)C)[C@@H](C)CC [Pep 4] | higher than 95% | important morphological changes | more than 90% | Significant inhibition | 65-70% |  |  |
| H-FKR[Aib]KK[Aib]FKK[Aib]WNWK-NH2 [Pep 12] |  |  |  |  |  | relatively little or no inhibition against one or two strains |  |
| nOct-Aib-Gly-Leu-Aib-Lys-Lys-Leu—Leu-NH2 [Pep 4C1] | ineffective |  |  |  |  | relatively little or no inhibition against one or two strains |  |
| CCCCCCCC(=O)NC(C)(C)C(=O)N[C@@H](CCCCN)C(=O)N[C@@H](CCCCN)C(=O)N[C@@H](CC(C)C)C(=O)NC(C)(C)C(=O)NCC(=O)N[C@H](C(=O)N[C@H](CO)CC(C)C)[C@@H](C)CC [Pep 4C] (Octanoyl-[Aib]KKL[Aib]GI[Leu(ol)]) | ~70% | important morphological changes | more than 90% | Significant inhibition |  |  |  |
| CCCCCCCC(=O)NC(C)(C)C(=O)N[C@@H](CCCCN)C(=O)N[C@@H](CC(C)C)C(=O)NC(C)(C)C(=O)N[C@@H](CCCCN)C(=O)NCC(=O)N[C@@H](CC(C)C)C(=O)NC(C)(C)C(=O)N[C@@H](CCCCN)C(=O)N[C@H](C(=O)N[C@H](CO)CC(C)C)[C@@H](C)CC [Pep 5] (Octanoyl-[Aib]KL[Aib]KGL[Aib]KI[Leu(ol)]) | higher than 95% | important morphological changes | more than 90% | Significant inhibition | 65-70% |  | representative lesions on rice leaves (in words) [4]: reduced lesions |
| nOct-Aib-Gly-Leu-Aib-Gly-Lys-Leu-Aib-Gly-Ile-Lol [Pep 22] | ineffective |  |  |  |  | relatively little or no inhibition against one or two strains |  |
| nOct-Aib-Gly-Leu-Aib-Lys-Aib-Leu-Aib-Gly-Ile-Lol [Pep 6] |  | germinated normally and did not show any morphological alteration |  |  |  |  | mycelium growth in the presence of the peptide versus untreated control [5]: grew better than the untreated control |
| nOct-Aib-Lys-Leu-Aib-Gly-Lys-Leu-Aib-Gly-Ile-Lol [Pep 7] | higher than 95% |  |  | Significant inhibition | 65-70% | relatively little or no inhibition against one or two strains |  |
| nOct-Aib-Gly-Leu-Aib-Lys-Gly-Leu-Aib-Gly-Ile-Lol [Pep 3] |  |  |  |  | inefficacy |  |  |
| Palmitoyl-His-Ala-Ala-His-Lys(ε-Ser)-Gly-COOH [Pep 19] |  | germinated normally and did not show any morphological alteration |  |  |  | relatively little or no inhibition against one or two strains | inhibition of AP strain (in words) [6]: did not inhibit; inhibition of Guy11 strain (in words) [7]: did not inhibit; inhibition of I203 strain (in words) [8]: did not inhibit; inhibition of IT10 strain (in words) [9]: partially inhibited |
| nOct-Aib-Gly-Leu-Aib-Gly-Gly-Leu-Api-Gly-Ile-Lol [Pep 8Api] | higher than 95% | important morphological changes |  | Significant inhibition | 50-55% | relatively little or no inhibition against one or two strains |  |
| nOct-Aib-Gly-Leu-Aib-Gly-Gly-Leu-Aib-Gly-Ile-Lol [Trichogin, Trichogin GA IV, reference compound] | ineffective |  |  |  |  |  | activity of trichogin against P. oryzae in vitro [3]: ineffective |
| nOct-Aib—Lys-Lys-Leu-Aib-Gly-Ile-Leu-NH2 [Pep 4C2] | about 75% |  |  | Significant inhibition | 65-70% | relatively little or no inhibition against one or two strains | representative lesions on rice leaves (in words) [4]: reduced lesions |

— publication PMC8551967 (Frontiers in Microbiology, 2021)
